According to PubChem BioAssay (NCI):
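Exposure lasted 48 hours, with cells grown in 96-well plates and compounds tested at five concentrations. TGI marks complete inhibition of growth.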 Where a SMILES comes first, the peptide text is derived from it. The star is where a group is joined. Pentanoyl = CCCCC(=O)*; Boc = CC(C)(C)OC(=O)*

Tests used:
Assay in all cases: growth of human tumour cells (NCI), 48 h
786-0 renal = test system: 786-0 renal
A549 NSCLC = test system: A549 NSCLC
CAKI-1 renal = test system: CAKI-1 renal
CCRF-CEM leukemia = test system: CCRF-CEM leukemia
DU-145 prostate = test system: DU-145 prostate
HOP-62 NSCLC = test system: HOP-62 NSCLC
IGROV1 ovarian = test system: IGROV1 ovarian
KM12 colon = test system: KM12 colon
MDA-MB-435 = test system: MDA-MB-435
MDA-N = test system: MDA-N
MOLT-4 leukemia = test system: MOLT-4 leukemia
NCI-H522 lung = test system: NCI-H522 lung
OVCAR-5 ovarian = test system: OVCAR-5 ovarian
RPMI-8226 leukemia = test system: RPMI-8226 leukemia
SF-268 CNS = test system: SF-268 CNS
SK-MEL-5 melanoma = test system: SK-MEL-5 melanoma
SR leukemia = test system: SR leukemia
TK-10 renal = test system: TK-10 renal
MCF7 breast = test system: MCF7 breast

Structure (SMILES) | TGI (786-0 renal) [µM] | TGI (A549 NSCLC) [µM] | TGI (CAKI-1 renal) [µM] | TGI (CCRF-CEM leukemia) [µM] | TGI (DU-145 prostate) [µM] | TGI (HOP-62 NSCLC) [µM] | TGI (IGROV1 ovarian) [µM] | TGI (KM12 colon) [µM] | TGI (MDA-MB-435) [µM] | TGI (MDA-N) [µM] | TGI (MOLT-4 leukemia) [µM] | TGI (NCI-H522 lung) [µM] | TGI (OVCAR-5 ovarian) [µM] | TGI (RPMI-8226 leukemia) [µM] | TGI (SF-268 CNS) [µM] | TGI (SK-MEL-5 melanoma) [µM] | TGI (SR leukemia) [µM] | TGI (TK-10 renal) [µM] | TGI (MCF7 breast) [µM]
CSC1=NC(C(N)=O)C(N)N1C (stereo not drawn) | > 100 | > 100 | > 100 | > 100 | > 100 | > 100 | > 100 | > 100 | > 100 | > 100 | > 100 | > 100 | > 100 | > 100 | > 100 | > 100 | > 100 | > 100 | –
C=C1CCCCCCCCCCC12SCCC2CCCCSC (stereo not drawn) | 87.4 | > 100 | – | – | > 100 | 40.9 | 49.9 | – | 75.7 | > 100 | 40.1 | 36.8 | 40 | 46 | 67.4 | 33.1 | 53.4 | – | 39.3
O=c1ssc(Cl)c1Nc1c(Cl)ssc1=O | 38.2 | 49.8 | 32 | > 23.5 | 32.3 | 42.4 | 34.2 | 32.3 | 37.7 | – | 7.29 | 60.5 | 37.3 | 29.9 | 51.8 | 32 | 15 | 33.3 | > 63
Nc1ccc(N=Nc2ccc(-c3ccc(O)cc3)cc2)c2ccc(S(=O)(=O)O)cc12 | > 100 | > 100 | > 100 | > 100 | > 100 | > 100 | > 100 | > 100 | > 100 | – | > 100 | > 100 | > 100 | > 100 | > 100 | > 100 | > 100 | > 100 | > 100
CCCCC(=O)Oc1ccc(CC(NC(=O)OC(C)(C)C)C(=O)NC(C)C(=O)NC(Cc2ccccc2)C(=O)NCC(N)=O)cc1 (stereo not drawn) (Boc-Y(Pentanoyl)AFG-NH2; configuration not given here) | > 100 | > 100 | > 100 | > 100 | > 100 | 50 | 53.7 | 47.8 | 45.1 | 65.8 | 54.2 | 39.5 | 52 | 44.8 | > 100 | > 100 | – | > 100 | 41.8
CN1C(=O)N/C(=C\c2ccc(S(=O)(=O)N/N=C\C(O)C(O)C(O)CO)cc2)C1=O (stereo not drawn) | > 100 | > 100 | > 100 | > 100 | > 100 | > 100 | > 100 | > 100 | > 100 | > 100 | > 100 | – | > 100 | > 100 | > 100 | > 100 | > 100 | > 100 | > 100
C=CCn1c(C23CC4CC(CC(C4)C2)C3)n[nH]c1=S | > 100 | – | – | > 100 | > 100 | > 100 | > 100 | > 100 | > 100 | > 100 | > 100 | > 100 | > 100 | > 100 | > 100 | – | 29.3 | > 100 | > 100
COc1ccc(OC)c(C23CCCC(C2)N(C)CC3)c1 (stereo not drawn) | 85.3 | > 100 | > 100 | – | 91.9 | – | – | 33.5 | 37.9 | 74.6 | > 100 | – | > 100 | 42.2 | > 100 | – | 44.7 | > 100 | 32.1
N#Cc1c(NCCc2ccc(F)cc2)c2ccccc2n2c1nc1ccccc12 | 17.6 | > 100 | 29.1 | > 100 | 98.1 | > 100 | 39.9 | > 100 | > 100 | > 100 | > 100 | – | > 100 | > 100 | 96.5 | – | > 100 | 60.8 | > 100
COc1ccc2c(c1)c1c(n2CCN(C)C)-c2cccc(OC)c2CC1 | > 100 | 40.9 | 29.1 | 15.1 | 39.5 | 27.6 | 39 | 25.4 | 28 | 26.1 | 26.8 | 15.6 | 29.8 | 18.2 | 38.9 | 35 | – | 41.5 | 29.5
O=C(O)c1ccc([N+]2=Cn3c(nc4ccccc43)C2)cc1 | > 100 | > 100 | > 100 | > 100 | > 100 | > 100 | > 100 | > 100 | > 100 | > 100 | – | > 100 | > 100 | > 100 | > 100 | > 100 | – | > 100 | > 100
O=C(O)c1ccc(-c2nc3ccc(Cl)cc3[nH]2)cc1 | > 100 | > 100 | > 100 | > 100 | – | > 100 | > 100 | > 100 | – | – | > 100 | > 100 | – | > 100 | – | > 100 | > 100 | – | > 100
CCn1c(-c2ccc(F)cc2)nc2c1C(=O)c1ccccc1C2=O | > 100 | > 100 | – | > 100 | > 100 | > 100 | > 100 | > 100 | > 100 | > 100 | > 100 | > 100 | > 100 | > 100 | > 100 | > 100 | > 100 | > 100 | > 100
